From PubChem BioAssay AID588426 (Johns Hopkins Ion Channel Center, 2011)
Calls of active or inactive are those of the source.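 How the source made its calls: active means blocks KCNQ2 potassium channel current at some tested dose, with a fitted dose response curve; inactive means the rest.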

molecular target: Potassium voltage-gated channel subfamily KQT member 2 (Rattus norvegicus) (UniProt O88943); test: KCNQ2 channel current inhibitors, SAR follow-up, orthogonal assay for KCNQ2 inhibitor project, automated electrophysiology, CHO cells, CRC2 (AID 588426); conditions: KCNQ2-CHO automated patch clamp current
Sequence (O88943 whole entry, looked up): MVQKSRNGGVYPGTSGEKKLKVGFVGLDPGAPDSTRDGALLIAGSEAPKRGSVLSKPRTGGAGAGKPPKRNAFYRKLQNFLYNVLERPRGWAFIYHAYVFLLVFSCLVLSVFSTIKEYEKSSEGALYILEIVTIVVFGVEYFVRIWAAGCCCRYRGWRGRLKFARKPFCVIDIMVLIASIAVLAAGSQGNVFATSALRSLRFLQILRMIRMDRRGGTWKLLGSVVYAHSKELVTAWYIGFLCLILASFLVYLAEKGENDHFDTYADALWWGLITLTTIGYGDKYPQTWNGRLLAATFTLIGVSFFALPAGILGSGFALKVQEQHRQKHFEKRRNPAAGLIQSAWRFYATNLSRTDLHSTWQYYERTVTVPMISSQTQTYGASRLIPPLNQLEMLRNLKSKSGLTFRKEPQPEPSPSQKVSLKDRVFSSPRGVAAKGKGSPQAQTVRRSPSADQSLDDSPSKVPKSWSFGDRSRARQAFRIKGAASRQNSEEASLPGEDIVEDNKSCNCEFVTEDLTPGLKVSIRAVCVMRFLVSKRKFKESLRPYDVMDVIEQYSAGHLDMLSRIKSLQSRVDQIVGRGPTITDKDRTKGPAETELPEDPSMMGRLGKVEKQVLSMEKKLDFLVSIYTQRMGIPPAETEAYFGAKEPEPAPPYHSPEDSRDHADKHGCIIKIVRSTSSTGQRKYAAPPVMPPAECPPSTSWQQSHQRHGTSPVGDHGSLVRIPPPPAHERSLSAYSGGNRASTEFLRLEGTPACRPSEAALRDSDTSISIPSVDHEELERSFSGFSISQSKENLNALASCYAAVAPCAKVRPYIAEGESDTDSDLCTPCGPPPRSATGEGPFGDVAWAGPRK

SMILES	IC50
COc1cccc(CC(=O)Nc2ccccc2N2CCCC2)c1	2350 nM
O=C(Cc1ccc(F)cc1)Nc1ccccc1N1CCCC1	700 nM
CCC(C(=O)Nc1ccccc1N(C)C)c1ccccc1 (configuration not stated)	17400 nM
C[C@H](C(=O)Nc1ccccc1N1CCCC1)c1ccccc1	590 nM
O=C(Cc1cccc(Cl)c1)Nc1ccccc1N1CCCC1	170 nM
CCC(C(=O)Nc1ccc(N2CCCC2)cc1)c1ccccc1 (configuration not stated)	210 nM
CCC(C(=O)Nc1ccccc1-n1cccc1)c1ccccc1 (configuration not stated)	5270 nM
CCC(C(=O)Nc1ccccc1Cl)c1ccccc1 (configuration not stated)	15000 nM
CC(C(=O)Nc1ccccc1N1CCCC1)c1ccccc1 (configuration not stated)	260 nM
O=C(Nc1ccccc1N1CCCC1)[C@@H]1CCCc2ccccc21	29900 nM
O=C(Cc1ccccc1Cl)Nc1ccccc1N1CCCC1	950 nM
O=C(Nc1ccccc1N1CCCC1)[C@H]1CCCc2ccccc21	24600 nM
O=C(Cc1ccc(Cl)cc1)Nc1ccccc1N1CCCC1	800 nM
O=C(Cc1cccc(C(F)(F)F)c1)Nc1ccccc1N1CCCC1	350 nM
COc1ccc(CC(=O)Nc2ccccc2N2CCCC2)cc1	1750 nM
O=C(Cc1cccc(F)c1)Nc1ccccc1N1CCCC1	490 nM
O=C(Nc1ccccc1N1CCCC1)C1CCc2ccccc21 (configuration not stated)	330 nM
CC[C@H](C(=O)Nc1ccc(N2CCCC2)cc1)c1ccccc1	110 nM
C[C@@H](C(=O)Nc1ccccc1N1CCCC1)c1ccccc1	5130 nM
O=C(Cc1ccccc1)Nc1ccccc1N1CCCC1	740 nM
CC[C@@H](C(=O)Nc1ccc(N2CCCC2)cc1)c1ccccc1	360 nM
O=C(Nc1ccccc1N1CCCC1)[C@@H]1CCc2ccccc21	2290 nM
Cc1cccc(CC(=O)Nc2ccccc2N2CCCC2)c1	1320 nM
O=C(Nc1ccccc1N1CCCC1)C(c1ccccc1)C1CC1 (configuration not stated)	3500 nM
O=C(Cc1ccc(Cl)c(Cl)c1)Nc1ccccc1N1CCCC1	1070 nM
CCC(C(=O)Nc1ccccc1N1CCOCC1)c1ccccc1 (configuration not stated)	12700 nM
O=C(Nc1ccccc1N1CCCC1)[C@H]1CCc2ccccc21	14100 nM

Other lines, results leading:

IC50	SMILES
560 nM	O=C(Cc1c(F)cccc1F)Nc1ccccc1N1CCCC1
240 nM	CCC(C(=O)Nc1ccccc1N1CCCC1)c1cccc(Cl)c1 (configuration not stated)
380 nM	CCC(C(=O)Nc1ccccc1N1CCCC1)c1ccc(OC)cc1 (configuration not stated)
940 nM	CC[C@@H](C(=O)Nc1ccccc1N1CCCC1)c1ccccc1
1730 nM	O=C(Cc1ccc(F)c(F)c1)Nc1ccccc1N1CCCC1
390 nM	CCC(C(=O)Nc1ccccc1N1CCCC1)c1cccc(C(F)(F)F)c1 (configuration not stated)
20200 nM	CCC(C(=O)Nc1ccccc1N1CCCC1)c1ccc(OC)c(OC)c1 (configuration not stated)
130 nM	CCC(C(=O)Nc1ccccc1N1CCCC1)c1ccc(F)cc1 (configuration not stated)
3310 nM	CCC(C(=O)Nc1ccccc1N1CCCC1)c1ccccc1Cl (configuration not stated)
2220 nM	CC(C)CC(C(=O)Nc1ccccc1N1CCCC1)c1ccccc1 (configuration not stated)
160 nM	CCC(C(=O)Nc1ccccc1N1CCCC1)c1ccccc1 (configuration not stated)
360 nM	CCC(C(=O)Nc1ccccc1N1CCCC1)c1cccc(F)c1 (configuration not stated)
330 nM	CCC(C(=O)Nc1ccccc1N1CCCC1)c1cccc(C)c1 (configuration not stated)
120 nM	CCC(C(=O)Nc1ccccc1N1CCCC1)c1cccc(OC)c1 (configuration not stated)
170 nM	CCC(C(=O)Nc1ccccc1N1CCCC1)c1ccc(F)c(F)c1 (configuration not stated)
990 nM	O=C(Nc1ccccc1N1CCCC1)C(F)c1ccccc1 (configuration not stated)
320 nM	CCCC(C(=O)Nc1ccccc1N1CCCC1)c1ccccc1 (configuration not stated)
470 nM	CCC(C(=O)Nc1ccccc1N1CCCC1)c1ccc(Cl)c(Cl)c1 (configuration not stated)
80 nM	CC[C@H](C(=O)Nc1ccccc1N1CCCC1)c1ccccc1
280 nM	CCC(C(=O)Nc1ccccc1N1CCCC1)c1ccc(Cl)cc1 (configuration not stated)
440 nM	CCC(C(=O)Nc1ccccc1N1CCCC1)c1ccccc1F (configuration not stated)

same assay, conditions: KCNQ2-CHO automated patch clamp current; at 30 µM (top of the series)

SMILES	current change, negative = inhibition
CCC(C(=O)Nc1ccccc1OC)c1ccccc1 (configuration not stated)	inactive
CCC(C(=O)Nc1ccccc1-n1c(C)ccc1C)c1ccccc1 (configuration not stated)	inactive
CCC(C(=O)Nc1cccc(N2CCCC2)c1)c1ccccc1 (configuration not stated)	inactive
CC(C)(C(=O)Nc1ccccc1N1CCCC1)c1ccccc1	inactive
CC(C)C(C(=O)Nc1ccccc1N1CCCC1)c1ccccc1 (configuration not stated)	inactive
CCC(C(=O)Nc1ccccc1-n1ccnc1)c1ccccc1 (configuration not stated)	inactive
O=C(Nc1ccccc1N1CCCC1)C1CCOc2ccccc21 (configuration not stated)	inactive
CCC(C(=O)Nc1ccccc1N1C(=O)CCC1=O)c1ccccc1 (configuration not stated)	inactive
CCC(C(=O)Nc1ccccc1N(C)Cc1ccccc1)c1ccccc1 (configuration not stated)	inactive
CCC(C(=O)Nc1ccccc1N(C)CC)c1ccccc1 (configuration not stated)	inactive
O=C(Nc1ccccc1N1CCCC1)C1(c2ccccc2)CC1	inactive

The next lines start with the values.

current change, negative = inhibition	SMILES
inactive	CCC(C(=O)Nc1ccccc1N1CCCCCCC1)c1ccccc1 (configuration not stated)
inactive	O=C(Cc1ccccc1F)Nc1ccccc1N1CCCC1
inactive	CCC(C(=O)Nc1ccccc1N1CCCCC1)c1ccccc1 (configuration not stated)
